Measured values: publication PMC7179450, “Primary Human Hepatocytes, But not HepG2 or Balb/c 3T3 Cells, Efficiently Metabolize Salinomycin and Are Resistant to Its Cytotoxicity” (Molecules, 2020)

Tested on: HepG2 cells
Test: Biotransformation of SAL and metabolites in HepG2 (LC-MS/MS)
Type: in vitro ADME, human
Conditions: HepG2, only after induction with prednisolone, 24 h (Figure 2C)
Description: The HepG2 cell line was purchased from the American Type Culture Collection (ATCC® HB-8065™). The cells were cultured in Minimum Essential Medium Eagle (MEME) (Sigma–Aldrich Co. (St. Louis, MO, USA)). Normal murine embryonic fibroblasts, Balb/c 3T3 clone A31 cell line (gift from Department of Swine Diseases of the National Veterinary Research Institute in Pulawy) was cultured in Dulbecco’s Modified Eagle’s Medium (DMEM) (Invitrogen Corporations (Paisley, UK)). The media were supplemented with 10% BCS (Balb/c 3T3), 10% FBS (HepG2), 1% L-glutamine, and 1% antibiotic solution. The cells were maintained in 75 cm^2 cell culture flasks in humidified incubator at 37 °C, in an atmosphere of 5% CO2. […] The initial cell viability was determined with the trypan blue exclusion test. […]
The medium samples from microplate wells were collected for identifying SAL metabolites and normalized to a cell number. An aliquot of 200 µL of each sample was measured to Eppendorf tube. […] The dry residue was reconstituted in 50% acetonitrile and analyzed with LC-MS/MS. […]
SAL (m/z 773.4 to m/z 431.3) was monitored in multiple reaction monitoring (MRM) modes. […]
The signals for further analysis were selected with the LightSight 2.3 software. […] These MRM transitions (with 20 chromatographic peaks) were then quantified with Multiquant 2.1. software. Quantitative analysis was performed for SAL. […]

CC[C@@H](C(=O)[C@@H](C)[C@@H](O)[C@H](C)[C@@H]1O[C@@H]([C@@H](CC)C(=O)O)CC[C@@H]1C)[C@H]1O[C@]2(C=C[C@@H](O)[C@]3(CC[C@@](C)([C@H]4CC[C@](O)(CC)[C@H](C)O4)O3)O2)[C@H](C)C[C@@H]1C [SAL, salinomycin]
percentage of SAL metabolised: ca. 20%
